In patent US20120202690A1, “HERBICIDAL COMPOUNDS” (SYNGENTA LIMITED, priority 2009, published 2012):

Legend:
Format in all cases: in vivo
[1] = tested on: Alopecurus myosuroides (ALOMY); test: Post-emergence biological efficacy, glasshouse, 500 or 1000 g/ha, evaluated after 13 days (100=total damage to plant; 0=no damage to plant); details: Alopecurus myosuroides, 312 h, rate 1,000 g/ha, read-out: Percentage damage caused to weed species, post-emergence, ALOMY
Method in brief: (§1)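 Standard soil, potted from seed; post-emergence treatment; glasshouse 24/16° C. (day/night), 14 h light, 65% humidity; watering twice daily.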

[2] = tested on: Amaranthus retroflexus (AMARE); test: as above; details: Amaranthus retroflexus, 312 h, rate 1,000 g/ha, read-out: Percentage damage caused to weed species, post-emergence, AMARE
Method in brief: as §1

[3] = tested on: Echinochloa crusgaffi (ECHCG); test: as above; details: Echinochloa, 312 h, rate 1,000 g/ha, read-out: Percentage damage caused to weed species, post-emergence, ECHCG
Method in brief: as §1

Setaria faberi (SETFA) [4] = test: as above; details: Setaria faberi, 312 h, rate 1,000 g/ha, read-out: Percentage damage caused to weed species, post-emergence, SETFA
Method in brief: as §1

Solanum nigrum (SOLNI) [5] = test: as above; details: Solanum nigrum, 312 h, rate 1,000 g/ha, read-out: Percentage damage caused to weed species, post-emergence, SOLNI
Method in brief: as §1

[6] = tested on: Ipomoea hederaceae (IPOHE); test: as above; details: Ipomoea, 312 h, rate 1,000 g/ha, read-out: Percentage damage caused to weed species, post-emergence, IPOHE
Method in brief: as §1

[7] = tested on: Alopecurus myosuroides (ALOMY); test: Pre-emergence biological efficacy, glasshouse, 1000 g/ha, evaluated after 13 days (100=total damage to plant; 0=no damage to plant); details: Alopecurus myosuroides, 312 h, rate 1,000 g/ha, read-out: Percentage damage caused to weed species, pre-emergence, ALOMY
Method in brief: (§2)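 Standard soil in pots received the seeds. Growth took place in a glasshouse held at 24/16° C. day/night, 65% humidity and 14 h of light.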

[8] = tested on: Amaranthus retroflexus (AMARE); test: as above; details: Amaranthus retroflexus, 312 h, rate 1,000 g/ha, read-out: Percentage damage caused to weed species, pre-emergence, AMARE
Method in brief: as §2

Setaria faberi (SETFA) [9] = test: as above; details: Setaria faberi, 312 h, rate 1,000 g/ha, read-out: Percentage damage caused to weed species, pre-emergence, SETFA
Method in brief: as §2

Solanum nigrum (SOLNI) [10] = test: as above; details: Solanum nigrum, 312 h, rate 1,000 g/ha, read-out: Percentage damage caused to weed species, pre-emergence, SOLNI
Method in brief: as §2

[11] = tested on: Ipomoea hederaceae (IPOHE); test: as above; details: Ipomoea, 312 h, rate 1,000 g/ha, read-out: Percentage damage caused to weed species, pre-emergence, IPOHE
Method in brief: as §2

[12] = tested on: Echinochloa crus-galli (ECHCG); test: as above; details: Echinochloa crus-galli, 312 h, rate 1,000 g/ha, read-out: Percentage damage caused to weed species, pre-emergence, ECHCG
Method in brief: as §2

| Compound | pest or weed control at 1000 g/ha [1] [%] | pest or weed control at 1000 g/ha [2] [%] | pest or weed control at 1000 g/ha [3] [%] | pest or weed control at 1000 g/ha (Setaria faberi (SETFA) [4]) [%] | pest or weed control at 1000 g/ha (Solanum nigrum (SOLNI) [5]) [%] | pest or weed control at 1000 g/ha [6] [%] | pest or weed control at 1000 g/ha [7] [%] | pest or weed control at 1000 g/ha [8] [%] | pest or weed control at 1000 g/ha (Setaria faberi (SETFA) [9]) [%] | pest or weed control at 1000 g/ha (Solanum nigrum (SOLNI) [10]) [%] | pest or weed control at 1000 g/ha [11] [%] | pest or weed control at 1000 g/ha [12] [%] |
| --- | --- | --- | --- | --- | --- | --- | --- | --- | --- | --- | --- | --- |
| COC(=O)c1nc(-c2ccc(Cl)c(OC)c2F)nc2c1N(Cc1ccc(OC)cc1OC)C(C)N2Cc1ccc(OC)cc1OC (stereo not drawn) [Compound 83-48, 2-(4-Chloro-2-fluoro-3-methoxyphenyl)-7,9-bis(2,4-dimethoxyphenyl-methyl)-6-methoxycarbonyl-8-methyl-8,9-dihydro-7H-purine] | 20 | 0 | 20 | 20 | 20 | 10 | 0 | 0 | 0 | 0 | 0 | 0 |
| COc1c(Cl)ccc(-c2nc(C(=O)O)c3c(C)cn(Cc4ccccc4[N+](=O)[O-])c3n2)c1F [Compound 8-63, 4-Carboxy-2-(4-chloro-2-fluoro-3-methoxyphenyl)-5-methyl-7-(2-nitrophenyl-methyl)-7H-pyrrolo[2 ,3-d]pyrimidine] | 10 | 70 | 50 | 20 | 80 | 60 | 0 | 10 | 0 | 40 | 30 | 0 |
| COC(=O)c1nc(C2CC2)nc2[nH]cc(C)c12 [Compound 1-4, 2-Cyclopropyl-4-methoxycarbonyl-5-methyl-7H-pyrrolo[2,3-d]pyrimidine] | 10 | 100 | 70 | 80 | 90 | 70 | 10 | 90 | 30 | 90 | 60 | 30 |
| COC(=O)c1nc(-c2ccc(Cl)c(F)c2)nc2c1ccn2Cc1ccccc1 [Compound 6-18, 2-(4-Chloro-3-fluorophenyl)-4-methoxycarbonyl-7-phenylmethyl-7H-pyrrolo[2,3-d]pyrimidine] | 0 | 0 | 0 | 0 | 40 | 20 | 0 | 0 | 0 | 0 | 0 | 0 |
| COC(=O)c1nc(-c2ccc(Cl)c(F)c2)nc2c1ccn2CC1CC1 [Compound 5-18, 2-(4-Chloro-3-fluorophenyl)-7-cyclopropylmethyl-4-methoxycarbonyl-7H-pyrrolo[2,3-d]pyrimidine] | 0 | 0 | 0 | 0 | 20 | 0 | 0 | 0 | 0 | 0 | 0 | 0 |
| COc1c(Cl)ccc(-c2nc(C(=O)O)c3c(C)cn(C(C)c4ccccc4)c3n2)c1F (stereo not drawn) [Compound 7-63, 4-Carboxy-2-(4-chloro-2-fluoro-3-methoxyphenyl)-5-methyl-7-(1-phenyl-ethyl)-7H-pyrrolo[2,3-d]pyrimidine] | 0 | 20 | 0 | 10 | 60 | 10 | 0 | 0 | 0 | 0 | 0 | 0 |
| COc1c(Cl)ccc(-c2nc(C(=O)O)c3cc(C)n(Cc4ccccc4[N+](=O)[O-])c3n2)c1F [Compound 8-65, 4-Carboxy-2-(4-chloro-2-fluoro-3-methoxyphenyl)-6-methyl-7-(2-nitrophenyl-methyl)-7H-pyrrolo[2,3-d]pyrimidine] | 0 | 0 | 0 | 20 | 10 | 10 | 0 | 0 | 0 | 0 | 0 | 0 |
| COC(=O)c1nc(-c2ccc(Cl)c(OC)c2F)nc2c1NC(C)C(C)N2 (stereo not drawn) [Compound 91-184, 2-(4-Chloro-2-fluoro-3-methoxyphenyl)-6,7-dimethyl-4-methoxy-carbonyl-5,6,7,8-tetrahydropteridine] | 0 | 20 | 30 | 0 | 50 | 70 | 0 | 0 | 0 | 0 | 0 | 0 |
| COC(=O)c1nc(Cl)nc2c1cc(C)n2Cc1ccco1 [Compound 11-126, 2-chloro-7-(2-furanylmethyl)-4-methoxycarbonyl-6-methyl-7H-pyrrolo[2,3-d]pyrimidine] | 0 | 0 | 0 | 0 | 20 | 0 | 0 | 0 | 0 | 0 | 0 | 0 |
| COC(=O)c1nc(-c2ccc(Cl)c(OC)c2F)cc2[nH]cc(C)c12 [Compound 22-64, 6-(4-chloro-2-fluoro-3-methoxyphenyl)-4-methoxycarbonyl-3-methyl-1H-pyrrolo[3,2-c]pyridine] | 50 | 100 | 80 | 70 | 90 | 70 | 10 | 90 | 20 | 80 | 60 | 70 |
| C=CCOC(=O)c1nc(-c2ccc(Cl)c(OC)c2F)cc2[nH]cc(C)c12 [Compound 22-80, 6-(4-Chloro-2-fluoro-3-methoxyphenyl)-3-methyl-4-(prop-2-enyloxycarbonyl)-1H-pyrrolo[3,2-c]pyridine] | 10 | 70 | 10 | 20 | 90 | 50 | 20 | 40 | 20 | 60 | 50 | 20 |
